Measurements published in ChEMBL document CHEMBL5512658, “Development of benzimidazole-based compounds as novel capsid assembly modulators for the treatment of HBV infection” (Eur J Med Chem, 2024).
Calls of active or inactive are those of the source. No cut-off for these calls is given here.

Legend:
[1] = test system: Hepatitis B virus core protein; test: Selectivity index, ratio of CC50 for human HepG2 cells to IC50 for Hepatitis B virus core protein expressed in HEK293T cells; assay type: toxicity, cell-based; conditions: read-out: Ratio CC50/IC50
Core antigen [2] = biological target: T1, Core antigen (Hepatitis B virus, UniProt Q03732); test: Inhibition of Hepatitis B virus core protein expressed in HBC cells derived from HEK293T cells assessed as reduction in HBcAg level incubated for 6 hrs by Nano-glo luciferase assay; assay type: cell-based
T1 sequence (Q03732 whole entry): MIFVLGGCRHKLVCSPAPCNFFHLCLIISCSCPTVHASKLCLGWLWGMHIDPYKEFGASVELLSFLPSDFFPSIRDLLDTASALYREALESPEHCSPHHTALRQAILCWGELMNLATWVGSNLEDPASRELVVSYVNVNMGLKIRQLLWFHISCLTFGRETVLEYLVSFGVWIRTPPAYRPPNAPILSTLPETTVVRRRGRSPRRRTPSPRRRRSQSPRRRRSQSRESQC

HepG2 = test: Cytotoxicity against human HepG2 cells measured after 3 days by resazurin staining based analysis; assay type: functional; conditions: HepG2, 72 h, time 3 day
Hepatitis B virus [3] = test: Antiviral activity against HBV infected in human HePAD38 cells assessed as inhibition of HBV capsid assembly by measuring secretion of particles containing HBV DNA at 5 uM incubated for 7 days by Southern blot analysis; assay type: functional, organism-based; conditions: time 7.0 day
Hepatitis B virus [4] = test: Antiviral activity against HBV infected in human HePAD38 cells assessed as reduction HBV capsid level at 5 uM media replaced for every 2 to 3 days incubated for 7 days by Western blot analysis; assay type: functional, organism-based; conditions: time 7.0 day
Core antigen [5] = biological target: T1, Core antigen; test: Inhibition of Hepatitis B virus core protein expressed in HBC cells derived from HEK293T cells assessed as reduction in HBcAg level […] incubated for 6 hrs by Nano-glo luciferase assay; assay type: cell-based
Hepatitis B virus [6] = test: Antiviral activity against HBV infected in human HePAD38 cells assessed as reduction in intracellular core HBV DNA level media replaced for every 2 to 3 days incubated for 7 days by Western blot analysis; assay type: functional, organism-based
Hepatitis B virus [7] = test: Antiviral activity against HBV infected in human HepAD38 cells assessed as inhibition of viral replication; assay type: functional, organism-based

SMILES	selectivity ratio [1]	IC50 (Core antigen [2]; read-out: IC50)	CC50 (HepG2)	Activity (Hepatitis B virus [3])	Activity (Hepatitis B virus [4])	IC50 (Core antigen [5])	IC50 (Core antigen [2]; hbc)	EC50 (Hepatitis B virus [6])	EC50 (Hepatitis B virus [7])
OCCn1c(Sc2ccc(F)cc2)nc2ccccc21	3.82	22.2 µM	84.7 µM	–	–	–	–	–	–
COc1ccc(CCCc2nc3ccccc3[nH]2)cc1	2.06	22.8 µM	47 µM	Active	Active	–	–	–	–
Fc1cc(F)cc(Sc2nc3ccccc3[nH]2)c1	> 5.07	19.7 µM	> 100 µM	–	–	–	–	–	–
Cc1ccc(Sc2nc3ccccc3[nH]2)cc1	8.96	6.81 µM	61 µM	–	–	–	–	–	–
COc1ccc(Cc2nc3ccccc3o2)cc1	> 2.76	36.3 µM	> 100 µM	–	–	–	–	–	–
COc1ccc(Cc2nc3ccccc3s2)cc1	–	–	32.6 µM	–	–	Not Active	–	–	–
COc1ccc(S(=O)(=O)c2nc3ccccc3[nH]2)cc1	2.42	26.9 µM	65.2 µM	–	–	–	–	–	–
Fc1cccc(Sc2nc3ccccc3[nH]2)c1	–	–	> 100 µM	–	–	–	Not Active	–	–
COc1ccc(Cc2nc3ccccc3n2CC(O)COc2ccccc2)cc1 (stereo not given)	6.18	1.99 µM	12.3 µM	–	–	–	–	0.07 µM	–
COc1ccc(Cc2nc3ccccc3n2CCCO)cc1	> 24	4.17 µM	> 100 µM	Active	–	–	–	–	–
OCCn1c(Sc2cccc(F)c2)nc2ccccc21	> 2.03	49.3 µM	> 100 µM	–	–	–	–	–	–
COC(=O)C1=C(C)NC(c2ncc(F)cc2F)=N[C@H]1c1ccc(F)cc1Cl	–	–	–	–	–	–	–	–	24.3 nM
COc1ccc(Cc2nc3ccccc3n2C[C@@H](O)COc2ccccc2)cc1	4.03	2.41 µM	9.72 µM	–	–	–	–	–	–
COCC(Cn1c(Cc2ccc(OC)cc2)nc2ccccc21)OC (stereo not given)	> 5.06	19.8 µM	> 100 µM	–	–	–	–	–	–
COc1ccc(Cc2nc3ccccc3[nH]2)cc1	> 48.8	2.05 µM	> 100 µM	Active	–	–	–	11.9 µM	–
CCc1ccc(Sc2nc3ccccc3n2CCO)cc1	18.4	4.5 µM	82.8 µM	–	–	–	–	–	–
COc1ccc(Cc2nc3ccccc3n2C2CCC2)cc1	3.29	27.2 µM	89.6 µM	–	–	–	–	–	–
COc1ccc(Cc2nc3ccccc3n2CC(=O)COc2ccccc2)cc1	2.79	3.67 µM	10.2 µM	–	–	–	–	–	–
COc1ccc(Cc2nc3ccccc3n2CCCCCCO)cc1	9.02	3.36 µM	30.3 µM	–	Active	–	–	–	–
COc1ccc(Cc2nc3ccccc3n2C)cc1	4.55	4.85 µM	22.1 µM	Active	Active	–	–	–	–
COc1ccc(Cc2nc3ccccc3n2CCO)cc1	> 42.2	2.37 µM	> 100 µM	Active	Active	–	–	–	–

SMILES	selectivity ratio [1]	IC50 (Core antigen [2]; read-out: IC50)	CC50 (HepG2)	Activity (Hepatitis B virus [3])	Activity (Hepatitis B virus [4])	IC50 (Core antigen [5])	IC50 (Core antigen [2]; hbc)	EC50 (Hepatitis B virus [6])	EC50 (Hepatitis B virus [7])
COCCCn1c(Cc2ccc(OC)cc2)nc2ccccc21	> 10.4	9.65 µM	> 100 µM	Active	Active	–	–	–	–
Clc1ccc(Sc2nc3ccccc3[nH]2)cc1Cl	> 9.03	11.1 µM	> 100 µM	–	–	–	–	–	–
COc1ccc(Sc2nc3ccccc3n2C)cc1	4.54	5.68 µM	25.8 µM	–	–	–	–	–	–
O=C(NCc1cc(F)c(F)c(F)c1)c1ccc(F)c(S(=O)(=O)N2CCC(O)CC2)c1	–	–	–	–	–	–	–	–	290 nM
COc1ccc(Cc2nc3ccccc3n2CCCCO)cc1	14.1	2.45 µM	34.4 µM	Active	Active	–	–	–	–
CCCCCn1c(Cc2ccc(OC)cc2)nc2ccccc21	6.1	7.63 µM	46.5 µM	–	–	–	–	–	–
OCCn1c(Sc2ccc(Cl)c(Cl)c2)nc2ccccc21	> 14.3	7 µM	> 100 µM	–	–	–	–	–	–
COc1ccc(CCc2nc3ccccc3[nH]2)cc1	> 2.91	34.3 µM	> 100 µM	Active	Active	–	–	–	–
COc1ccc(Cc2nc3ccccc3n2CCCOc2ccccc2)cc1	10.2	1.25 µM	12.7 µM	–	–	–	–	–	–
Brc1ccc(Sc2nc3ccccc3[nH]2)cc1	7.73	1.8 µM	13.9 µM	–	–	–	–	–	–
CCOC(=O)n1c(Cc2ccc(OC)cc2)nc2ccccc21	20.3	2.18 µM	44.2 µM	Active	Active	–	–	–	–
COc1ccc(Oc2nc3ccccc3[nH]2)cc1	–	–	> 100 µM	–	–	–	Not Active	–	–
CCc1ccc(Sc2nc3ccccc3[nH]2)cc1	4.37	3.93 µM	17.2 µM	–	–	–	–	–	–
COc1ccc(Cc2nc3ccccc3n2C(C)=O)cc1	27.2	1.57 µM	42.8 µM	Active	–	–	–	16.1 µM	–
CCn1c(Cc2ccc(OC)cc2)nc2ccccc21	6.55	4.51 µM	29.5 µM	–	–	–	–	–	–
COc1ccc(Cc2nc3ccccc3n2CCCCc2ccccc2)cc1	1.61	27.7 µM	44.6 µM	–	–	–	–	–	–
COc1ccc(Nc2nc3ccccc3[nH]2)cc1	10.7	6.13 µM	65.6 µM	–	–	–	–	–	–
COc1ccc(Sc2nc3ccccc3[nH]2)cc1	7.53	1.08 µM	8.13 µM	Active	Active	–	–	2 µM	–
COc1ccc(Sc2nc3ccccc3n2CCCCCO)cc1	> 167	0.6 µM	> 100 µM	Active	Active	–	–	5.7 µM	–
COc1ccc(Cc2nc3ccccc3n2CCCOC(C)=O)cc1	> 7.15	14 µM	> 100 µM	Active	–	–	–	–	–
Fc1ccc(Sc2nc3ccccc3[nH]2)cc1	1.11	12 µM	13.3 µM	–	–	–	–	–	–

SMILES	selectivity ratio [1]	IC50 (Core antigen [2]; read-out: IC50)	CC50 (HepG2)	Activity (Hepatitis B virus [3])	Activity (Hepatitis B virus [4])	IC50 (Core antigen [5])	IC50 (Core antigen [2]; hbc)	EC50 (Hepatitis B virus [6])	EC50 (Hepatitis B virus [7])
COc1ccc(Cc2nc3ccccc3n2CCCOc2cccnc2)cc1	11.1	1.21 µM	13.4 µM	–	–	–	–	–	–
COc1ccc(Cc2nc3ccccc3n2C[C@H](O)COc2ccccc2)cc1	6.18	2.46 µM	15.2 µM	–	–	–	–	–	–
COCC(O)Cn1c(Cc2ccc(OC)cc2)nc2ccccc21 (stereo not given)	> 30.1	3.32 µM	> 100 µM	–	–	–	–	–	–
CCOC(=O)Cn1c(Cc2ccc(OC)cc2)nc2ccccc21	2.35	9.41 µM	22.1 µM	–	–	–	–	–	–
COc1ccc(Cc2nc3ccccc3n2-c2ccccc2)cc1	–	52.9 µM	14.2 µM	–	–	–	–	–	–
Clc1cccc(Sc2nc3ccccc3[nH]2)c1	> 3.77	26.5 µM	> 100 µM	–	–	–	–	–	–
COc1ccc(-c2nc3ccccc3[nH]2)cc1	–	–	10.3 µM	–	–	Not Active	–	–	–
COc1ccc(Cc2nc3ccccc3n2CCCNc2ccccc2)cc1	9.73	1.26 µM	12.3 µM	–	–	–	–	–	–
OCCn1c(Sc2ccc(Br)cc2)nc2ccccc21	35.7	2.01 µM	71.8 µM	–	–	–	–	1.99 µM	–
COc1ccc(Cc2nc3ccccc3n2C(C)C)cc1	0.96	41.5 µM	37.1 µM	–	–	–	–	–	–
COc1ccc(Cc2nc3ccccc3n2CC(O)CO)cc1 (stereo not given)	> 32.6	3.07 µM	> 100 µM	–	–	–	–	–	–
CCCn1c(Cc2ccc(OC)cc2)nc2ccccc21	> 8.79	11.4 µM	> 100 µM	–	–	–	–	–	–
COc1ccc(Sc2nc3ccccc3n2C(C)=O)cc1	> 8.37	12 µM	> 100 µM	–	–	–	–	–	–
OCCn1c(Sc2ccc(Cl)cc2)nc2ccccc21	14.1	3.6 µM	50.7 µM	–	–	–	–	6.37 µM	–
COc1ccc(C2(c3nc4ccccc4[nH]3)CC2)cc1	> 4.58	21.8 µM	> 100 µM	–	–	–	–	–	–
CCCCn1c(Cc2ccc(OC)cc2)nc2ccccc21	> 15.4	6.48 µM	> 100 µM	–	–	–	–	–	–
COc1ccc([S+]([O-])c2nc3ccccc3[nH]2)cc1 (stereo not given)	0.93	36.5 µM	34 µM	–	–	–	–	–	–
COc1ccc(Cc2nc3ccccc3n2CCCBr)cc1	3.34	7.85 µM	26.2 µM	–	–	–	–	–	–
COc1ccc(Cc2nc3ccccc3n2CCCCCO)cc1	31.1	0.95 µM	29.5 µM	Active	Active	–	–	15.9 µM	–
Clc1ccc(Sc2nc3ccccc3[nH]2)cc1	4.65	2.94 µM	13.7 µM	–	–	–	–	–	–
